Experimental data as given in ChEMBL document CHEMBL1201862, “PubChem BioAssay data set” (2004).
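Assay format: 96-well plates, 48-hour exposure. Here, GI50 denotes the concentration required for 50% inhibition of growth.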 Activity calls are given as the source filed them. Rule as the data show it: active = GI50 up to about 1.1 µM and inactive = higher.

What was measured:
Assay in all cases: growth of human tumour cells (NCI), 48 h
HT-29 = system: HT-29
A498 = system: A498
SF-539 = system: SF-539
CCRF-CEM = system: CCRF-CEM
SK-MEL-5 = system: SK-MEL-5
RPMI-8226 = system: RPMI-8226
TK-10 = system: TK-10
HOP-62 = system: HOP-62
SK-OV-3 = system: SK-OV-3
SN12C = system: SN12C
OVCAR-4 = system: OVCAR-4
SF-295 = system: SF-295
NCI-H23 = system: NCI-H23
Hs-578T = system: Hs-578T
K562 = system: K562
LOX IMVI = system: LOX IMVI
COLO 205 = system: COLO 205
CAKI-1 = system: CAKI-1
DMS-273 = system: DMS-273
DLD-1 = system: DLD-1

Row | Structure (SMILES) | GI50 (HT-29) | GI50 (A498) | GI50 (SF-539) | GI50 (CCRF-CEM) | GI50 (SK-MEL-5) | GI50 (RPMI-8226) | GI50 (TK-10) | GI50 (HOP-62) | GI50 (SK-OV-3) | GI50 (SN12C) | GI50 (OVCAR-4) | GI50 (SF-295) | GI50 (NCI-H23) | GI50 (Hs-578T) | GI50 (K562) | GI50 (LOX IMVI) | GI50 (COLO 205) | GI50 (CAKI-1) | GI50 (DMS-273) | GI50 (DLD-1)
1 | CC(C)Oc1cccc(N2C(CCc3c[nH]c4ccc(Br)cc34)=NS(=O)(=O)c3cnccc32)c1 | 26.2 µM (inactive) | 35.4 µM (inactive) | 75.7 µM (inactive) | 95.5 µM (inactive) | 35 µM (inactive) | 24 µM (inactive) | 53.8 µM (inactive) | 94 µM (inactive) | 36.8 µM (inactive) | 69 µM (inactive) | 27.5 µM (inactive) | 25.7 µM (inactive) | 61.9 µM (inactive) | 64.6 µM (inactive) | 27 µM (inactive) | 59.7 µM (inactive) | 17.9 µM (inactive) | 22.7 µM (inactive) | – | –
2 | CCCCCCCCCc1cc(=O)c2ccc(OCc3ccccc3)cc2o1 | > 100 µM (inactive) | – | 90.8 µM (inactive) | 65.2 µM (inactive) | 97.9 µM (inactive) | – | 65.5 µM (inactive) | > 100 µM (inactive) | > 100 µM (inactive) | > 100 µM (inactive) | 83.2 µM (inactive) | > 100 µM (inactive) | > 100 µM (inactive) | – | > 100 µM (inactive) | > 100 µM (inactive) | > 100 µM (inactive) | 2.92 µM (inactive) | > 100 µM (inactive) | > 100 µM (inactive)
3 | CC1CCCC(C(=O)/C(=C/c2cccc(Cl)c2)C(=O)C(=O)O)C1 (stereo unspecified) | 18.4 µM (inactive) | > 100 µM (inactive) | 27.5 µM (inactive) | 19.3 µM (inactive) | 68.2 µM (inactive) | 14.7 µM (inactive) | > 100 µM (inactive) | > 100 µM (inactive) | 81.5 µM (inactive) | 72.1 µM (inactive) | 37.8 µM (inactive) | 50.4 µM (inactive) | 39.5 µM (inactive) | – | 19.5 µM (inactive) | – | 37.3 µM (inactive) | 33.3 µM (inactive) | 34.8 µM (inactive) | 20 µM (inactive)
4 | Cc1nc(=O)n2c(C)n[nH]c2c1C(=O)Nc1cc(Cl)cc(Cl)c1 | 31.3 µM (inactive) | – | 21.8 µM (inactive) | 20.2 µM (inactive) | 16.1 µM (inactive) | 9.91 µM (inactive) | 19.8 µM (inactive) | 25.6 µM (inactive) | 29 µM (inactive) | 15.9 µM (inactive) | 29.2 µM (inactive) | 31.4 µM (inactive) | 24.6 µM (inactive) | – | 23.8 µM (inactive) | 36.2 µM (inactive) | 26.7 µM (inactive) | 36.9 µM (inactive) | – | 19.1 µM (inactive)
5 | CC1CCC23COC(=O)C2C(O)CCC3C1(C)CC(O)c1ccoc1 (stereo unspecified) | > 100 µM (inactive) | > 100 µM (inactive) | > 100 µM (inactive) | > 100 µM (inactive) | > 100 µM (inactive) | – | > 100 µM (inactive) | > 100 µM (inactive) | > 100 µM (inactive) | > 100 µM (inactive) | > 100 µM (inactive) | > 100 µM (inactive) | > 100 µM (inactive) | – | > 100 µM (inactive) | > 100 µM (inactive) | > 100 µM (inactive) | – | – | > 100 µM (inactive)
6 | COc1cccc2c1C(=O)c1c(O)c3c(c(O)c1C2=O)C[C@@](O)(C(=O)CO)CC3OC1CC(N(C)CCOCC(OC(C)=O)OC(C)=O)C(O)C(C)O1 (stereo partly specified) | > 0.01 µM (active) | – | > 0.01 µM (active) | > 0.01 µM (active) | > 0.01 µM (active) | > 0.01 µM (active) | > 0.01 µM (active) | > 0.01 µM (active) | > 0.01 µM (active) | > 0.01 µM (active) | > 0.01 µM (active) | > 0.01 µM (active) | > 0.01 µM (active) | – | > 0.01 µM (active) | > 0.01 µM (active) | – | > 0.01 µM (active) | – | > 0.01 µM (active)
7 | CC(O)(c1ccc(OCCC[N+](C)(C)C)cc1)C(C)(O)c1ccc(OCCC[N+](C)(C)C)cc1 (stereo unspecified) | > 100 µM (inactive) | > 100 µM (inactive) | > 100 µM (inactive) | > 100 µM (inactive) | – | – | – | > 100 µM (inactive) | > 100 µM (inactive) | > 100 µM (inactive) | > 100 µM (inactive) | > 100 µM (inactive) | > 100 µM (inactive) | – | > 100 µM (inactive) | > 100 µM (inactive) | > 100 µM (inactive) | > 100 µM (inactive) | > 100 µM (inactive) | > 100 µM (inactive)
8 | COc1cc(C2Oc3cc(-c4oc5cc(O)cc(O)c5c(=O)c4O)ccc3OC2CO)ccc1O (stereo unspecified) [DEHYDROSILYLBIN] | 25.9 µM (inactive) | 9.27 µM (inactive) | 4.24 µM (inactive) | 5.77 µM (inactive) | 15.4 µM (inactive) | 4.41 µM (inactive) | 10.9 µM (inactive) | 11.2 µM (inactive) | 21.4 µM (inactive) | 10.8 µM (inactive) | 20.7 µM (inactive) | 10.7 µM (inactive) | 4.3 µM (inactive) | – | 11 µM (inactive) | – | 26.7 µM (inactive) | 14 µM (inactive) | 5.85 µM (inactive) | 14.5 µM (inactive)
